Marks after values point to notes of the source that are not given here.

The values below come from US20200093737A1, “PHARMACEUTICAL DOSAGE FORMS CONTAINING TASK-1 AND TASK-3 CHANNEL INHIBITORS, AND THE USE OF SAME IN BREATHING DISORDER THERAPY” (priority 2016, published 2020).

This assay has as its system upper airways. The assay can be described thus: Animal model of obstructive sleep apnoea in the pig (collapsibility of the upper airways under negative pressure). Type of assay: in vivo, German Landrace pigs. An excerpt: The effects of the formulations according to the invention of the inhibitors of TASK-1 and/or TASK-3 channels on the activation threshold of the genioglossus muscle by negative pressure and the collapsibility of the upper airways were investigated in a pig model for obstructive sleep apnoea. Using negative pressure, it is possible to induce collapse and thus obstruction of the upper airways in anaesthetized, spontaneously breathing pigs [Wirth et al., Sleep 36, 699-708 (2013)]. German Landrace pigs were used for the model. Since the nasal axis is in an almost vertical position in humans in a horizontal sleeping position, the pigs in the experiments were fixed in a sitting position (70 degrees), wherein the nose pointed upwards. After nasal administration, the formulation therefore flowed downwards over all regions of the upper airways. The pigs were anaesthetized and tracheotomized. One cannula each was inserted into the rostral and the caudal part of the trachea. Using a T connector, the rostral cannula was connected on the one hand to a device generating negative pressure and on the other hand to the caudal cannula. Using a T connector, the caudal cannula was connected to the rostral cannula and to a tube which allowed spontaneous breathing circumventing the upper airways. By appropriate closing and opening of the tubes it was thus possible for the pig to change from normal nasal breathing to breathing via the caudal cannula during the time when the upper airways were isolated and were connected to the device for generating negative pressure. The muscle activity of the Musculus genioglossus was recorded by electromyogram (EMG). At certain points in time, the collapsibility of the upper airways was tested by having the pig breathe via the caudal cannula and applying negative pressures of −50, −100 and −150 mbar (corresponding to −50, −100 and −150 cm water column (cm H2O)) to the upper airways. This caused the upper airways to collapse, which manifested itself in an interruption of the airflow and a pressure drop in the tube system. This test was conducted prior to administration of the test substance and at certain intervals after administration of the test substance. An appropriately effective test substance could prevent this collapse of the airways in the inspiratory phase. After changeover from nasal breathing to breathing via the caudal cannula, it was not possible to measure any EMG activity of the Musculus genioglossus in the anaesthetized pig. As a further test, the negative pressure at which EMG activity restarted was then determined. This threshold value was, if a test substance was effective, shifted to more positive values. The test was likewise conducted prior to the administration of the test substance and at certain intervals after the administration of the test substance. The test substance was administered by the nasal route. The results shown in the tables which follow were conducted with the compounds listed in Table 1 as Example 1, Example 3 and Example 4. Unless stated otherwise, the data were measured at a negative pressure of −100 mbar (corresponding to −100 cm water column (cm H2O)) on the upper airways. The active ingredients listed in Table 1 as Example 1, Example 3 and Example 4 were dissolved in the various formulations listed in Table 2 below and administered in an amount of 0 μg, 3 μg, 10 μg, 30 μg or 100 μg per pig. The active ingredient formulation or the pure vehicle was each administered with a pipette at a volume of 400 μl in each nostril. The duration of action in this pig model is defined as the time [min] in which a collapse of the upper airways was not observed in any animal, as a mean value of the specified number of animals. A duration of action specified as “>” X min signifies that the experiment was terminated at X min and up to this point a collapse of the upper airways was still not observed in any animal.

As for `O=C(C1CCCC1)N1CCN(Cc2c(-c3ccc(Br)cc3)nc3ccccn23)CC1` [Example 1, (4-{[2-(4-bromophenyl)imidazo[1,2-a]pyridin-3-yl]methyl}piperazin-1-yl)(cyclopentyl)methanone], the “Duration of action [min], mean value” (Formulation 1 (no glycerol), 10 μg per pig nasal, -50 mbar) was 150 min; the “Duration of action [min], mean value” (Formulation 1 (no glycerol), 10 μg per pig nasal, -100 mbar) turned out to be 120 min; the “Duration of action [min], mean value” (Formulation 3 (glycerol 2.5% w/v), 10 μg per pig nasal, -50 mbar) was more than 270 min; the “Duration of action [min], mean value” (Formulation 3 (glycerol 2.5% w/v), 10 μg per pig nasal, -100 mbar) amounted to 240 min.

In the case of `COc1cccc(C(=O)N2CCN(Cc3c(-c4ccc(Cl)cc4)nc4ccccn34)CC2)n1` [Example 3, (4-{[2-(4-chlorophenyl)imidazo[1,2-a]pyridin-3-yl]methyl}piperazin-1-yl)(6-methoxypyridin-2-yl)methanone], the “Duration of action [min], mean value” is, setting by setting: (Formulation 1 (no glycerol), 30 μg per pig nasal, -100 mbar) 180* min; (Formulation 1 (phosphate buffer pH 7/polysorbate 80, no glycerol), 3 μg per pig nasal, -100 mbar) 150 min; (Formulation 2 (5% w/v glycerol 85%, 4.25 absolute), 3 μg per pig nasal, -100 mbar) 210 min; (Formulation 3 (2.5% w/v glycerol 85%, 2.125 absolute), 3 μg per pig nasal, -100 mbar) 240 min; (Formulation 3 (2.5% w/v glycerol 85%, 2.125 absolute), 30 μg per pig nasal, -100 mbar) 390 min; (Formulation 4 (1% w/v glycerol 85%, 0.85 absolute), 3 μg per pig nasal, -100 mbar) 150 min. In addition, the “Duration of action [min], mean value” runs as follows: (Formulation 5 (2.5% w/v glycerol 85% + 20% w/v PEG400), 3 μg per pig nasal, -100 mbar) 240 min; (Formulation 6 (20% w/v propylene glycol, no glycerol), 30 μg per pig nasal, -100 mbar) 180 min; (Formulation 7 (1.25% w/v Na-CMC, no glycerol), 3 μg per pig nasal, -100 mbar) 120 min.

On to `O=C(c1ccccc1F)N1CCN(Cc2c(-c3ccc(Br)cc3)nc3ccccn23)CC1` [Example 4, (4-{[2-(4-bromophenyl)imidazo[1,2-a]pyridin-3-yl]methyl}piperazin-1-yl)(2-fluorophenyl)methanone], for which the “Duration of action [min], mean value” (Formulation 1 (no glycerol), 100 μg per pig nasal, -50 mbar) amounted to 180 min; the “Duration of action [min], mean value” (Formulation 1 (no glycerol), 100 μg per pig nasal, -100 mbar) is on record as 180 min; the “Duration of action [min], mean value” (Formulation 3 (glycerol 2.5% w/v), 100 μg per pig nasal, -50 mbar) was more than 300 min; the “Duration of action [min], mean value” (Formulation 3 (glycerol 2.5% w/v), 100 μg per pig nasal, -100 mbar) was 270 min.
